The values below come from patent US9701670B2, “Pyrazolyl-ureas as kinase inhibitors” (RESPIVERT LIMITED, priority 2013, dated 2017).

The structures appear in SMILES notation.

The target in data set [1] is p38 MAPKα isoform (MAPK14) (Homo sapiens (Human), UniProt Q16539). Description: p38 MAPKα enzyme inhibition (FRET, Z-LYTE), Method 1. In kind it is biochemical. The following applies: Method 1 (Table 4a1). As to the method:
The enzyme inhibitory activities of compounds disclosed herein are determined by FRET using synthetic peptides labelled with both donor and acceptor fluorophores (Z-LYTE, Invitrogen Ltd., Paisley, UK).
The inhibitory activities of test compounds against the p38 MAPKα isoform (MAPK14: Invitrogen), are evaluated indirectly by determining the level of activation/phosphorylation of the down-stream molecule, MAPKAP-K2. The p38 MAPKα protein (80 ng/mL, 2.5 μL) is mixed with the test compound (2.5 μL of either 4 μg/mL, 0.4 μg/mL, 0.04 μg/mL or 0.004 μg/mL) for 2 hr at RT. […] The mixture is incubated for 1 hr at RT. Development reagent (protease, 5 μL) is added for 1 hr prior to detection in a fluorescence microplate reader (Varioskan® Flash, ThermoFisher Scientific).
In all cases, the site-specific protease cleaves non-phosphorylated peptide only and eliminates the FRET signal. Phosphorylation levels of each reaction are calculated using the ratio of coumarin emission (donor) over fluorescein emission (acceptor), for which high ratios indicate high phosphorylation and low ratios indicate low phosphorylation levels.

The test system of data set [2] is Differentiated U937 cells. As to the kind of experiment: (l) Cell viability: MTT assay. The format is cell-based, human. The following applies: 1 μg/mL. As to the method:
Differentiated U937 cells are pre-incubated with each test compound (final concentration 1 μg/mL or 10 μg/mL in 200 μL media indicated below) under two protocols: the first for 4 hr in 5% FCS RPMI1640 media and the second in 10% FCS RPMI1640 media for 24 h. The supernatant is replaced with new media (200 μL) and MTT stock solution (10 μL, 5 mg/mL) is added to each well. After incubation for 1 hr the media are removed, DMSO (200 μL) is added to each well and the plates are shaken lightly for 1 hr prior to reading the absorbance at 550 nm. The percentage loss of cell viability is calculated for each well relative to vehicle (0.5% DMSO) treatment. Consequently an apparent increase in cell viability for drug treatment relative to vehicle is tabulated as a negative percentage.

Chain of p38 MAPKα isoform (MAPK14) (Q16539 whole entry, canonical isoform): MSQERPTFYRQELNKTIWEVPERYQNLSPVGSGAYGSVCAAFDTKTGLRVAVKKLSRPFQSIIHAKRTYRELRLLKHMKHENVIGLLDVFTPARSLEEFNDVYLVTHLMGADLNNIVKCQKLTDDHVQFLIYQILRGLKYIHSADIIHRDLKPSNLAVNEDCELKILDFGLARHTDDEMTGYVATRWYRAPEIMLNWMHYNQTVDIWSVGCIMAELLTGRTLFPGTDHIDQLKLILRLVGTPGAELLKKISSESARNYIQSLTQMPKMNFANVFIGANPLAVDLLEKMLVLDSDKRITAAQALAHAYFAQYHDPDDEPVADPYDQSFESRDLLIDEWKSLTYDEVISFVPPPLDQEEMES

In turn, `COc1cc(Nc2nccc(Oc3ccc(NC(=O)Nc4cc(C(C)C)nn4-c4ccc(C)cc4)c4ccccc34)n2)cc(C(=O)NCCN(C)C)c1` [Example 5, N-(2-(Dimethylamino)ethyl)-3-((4-((4-(3-(3-isopropyl-1-(p-tolyl)-1H-pyrazol-5-yl)ureido)naphthalen-1-yl)oxy)pyrimidin-2-yl)amino)-5-methoxybenzamide] showed an IC50 in data set [1] of 1 nM. Also, in data set [2], the “Cell viability at time point in d-U937 cells 4 h” value is “−ve (−ve and +ve indicate that the value is below and above respectively, the no significant effect threshold, defined as 30% inhibition at 1 μg/mL at the time point indicated.)”; the “Cell viability at time point in d-U937 cells 24 h” value was “−ve (−ve and +ve indicate that the value is below and above respectively, the no significant effect threshold, defined as 30% inhibition at 1 μg/mL at the time point indicated.)”.

With `COc1cc(Nc2cc(Oc3ccc(NC(=O)Nc4cc(C(C)(C)C)nn4-c4ccc(C)cc4)c4ccccc34)ncn2)cc(C(=O)NCCN2CCOCC2)c1` [Example 72, 3-((6-((4-(3-(3-(tert-butyl)-1-(p-tolyl)-1H-pyrazol-5-yl)ureido)naphthalen-1-yl)oxy)pyrimidin-4-yl)amino)-5-methoxy-N-(2-morpholinoethyl)benzamide], in data set [1], the IC50 is below 1 nM. Moreover, in data set [2], the “Cell viability at time point in d-U937 cells 4 h” value was “−ve (−ve and +ve indicate that the value is below and above respectively, the no significant effect threshold, defined as 30% inhibition at 1 μg/mL at the time point indicated.)”; the “Cell viability at time point in d-U937 cells 24 h” value was “−ve (−ve and +ve indicate that the value is below and above respectively, the no significant effect threshold, defined as 30% inhibition at 1 μg/mL at the time point indicated.)”.

As for `COc1ccc(-n2nc(C(C)C)cc2NC(=O)Nc2ccc(Oc3ccnc(Nc4cc(C(=O)NCCO)ccc4OC)n3)c3ccccc23)cc1` [Example 34, N-(2-hydroxyethyl)-3-((4-((4-(3-(3-isopropyl-1-(4-methoxyphenyl)-1H-pyrazol-5-yl)ureido)naphthalen-1-yl)oxy)pyrimidin-2-yl)amino)-4-methoxybenzamide], in data set [1], the IC50 was below 1 nM. Besides, in data set [2], the “Cell viability at time point in d-U937 cells 4 h” value is “+ve (−ve and +ve indicate that the value is below and above respectively, the no significant effect threshold, defined as 30% inhibition at 1 μg/mL at the time point indicated.)”; the “Cell viability at time point in d-U937 cells 24 h” value is “−ve (−ve and +ve indicate that the value is below and above respectively, the no significant effect threshold, defined as 30% inhibition at 1 μg/mL at the time point indicated.)”.

Compound `CCCNC(=O)c1cccc(Nc2nccc(Oc3ccc(NC(=O)Nc4cc(C(C)(C)C)nn4-c4ccc(OC)cc4)c4ccccc34)n2)c1` [Example 17, 3-(4-(4-(3-(3-tert-butyl-1-(4-methoxyphenyl)-1H-pyrazol-5-yl)ureido)naphthalen-1-yloxy)pyrimidin-2-ylamino)-N-propylbenzamide] gave an IC50 in data set [1] of 54 nM. For the same compound, in data set [2], the “Cell viability at time point in d-U937 cells 4 h” value is “−ve (−ve and +ve indicate that the value is below and above respectively, the no significant effect threshold, defined as 30% inhibition at 1 μg/mL at the time point indicated.)”; the “Cell viability at time point in d-U937 cells 24 h” value was “−ve (−ve and +ve indicate that the value is below and above respectively, the no significant effect threshold, defined as 30% inhibition at 1 μg/mL at the time point indicated.)”.

`COc1cc(Nc2nccc(Oc3ccc(NC(=O)Nc4cc(C(C)C)nn4-c4ccc(C)c(C)c4)c4ccccc34)n2)cc(C(=O)NCCN2CCOCC2)c1` [Example 56, 3-((4-((4-(3-(1-(3,4-dimethylphenyl)-3-isopropyl-1H-pyrazol-5-yl)ureido)naphthalen-1-yl)oxy)pyrimidin-2-yl)amino)-5-methoxy-N-(2-morpholinoethyl)benzamide] returned an IC50 in data set [1] below 1 nM. For the same compound, in data set [2], the “Cell viability at time point in d-U937 cells 4 h” value was “−ve (−ve and +ve indicate that the value is below and above respectively, the no significant effect threshold, defined as 30% inhibition at 1 μg/mL at the time point indicated.)”; the “Cell viability at time point in d-U937 cells 24 h” value was “−ve (−ve and +ve indicate that the value is below and above respectively, the no significant effect threshold, defined as 30% inhibition at 1 μg/mL at the time point indicated.)”.

`COc1ccc(C(=O)NCCN(C)C)cc1Nc1nccc(Oc2ccc(NC(=O)Nc3cc(C(C)C)nn3-c3ccc(C)cc3)c3ccccc23)n1` [Example 28, N-(2-(dimethylamino)ethyl)-3-((4-((4-(3-(3-isopropyl-1-(p-tolyl)-1H-pyrazol-5-yl)ureido)naphthalen-1-yl)oxy)pyrimidin-2-yl)amino)-4-methoxybenzamide] had an IC50 in data set [1] below 1 nM. Besides, in data set [2], the “Cell viability at time point in d-U937 cells 4 h” value is “−ve (−ve and +ve indicate that the value is below and above respectively, the no significant effect threshold, defined as 30% inhibition at 1 μg/mL at the time point indicated.)”; the “Cell viability at time point in d-U937 cells 24 h” value was “−ve (−ve and +ve indicate that the value is below and above respectively, the no significant effect threshold, defined as 30% inhibition at 1 μg/mL at the time point indicated.)”.

In turn, `COc1ccc(C(=O)NCCN2CCOCC2)cc1Nc1nccc(Oc2ccc(NC(=O)Nc3cc(C(C)C)nn3-c3ccc(C)cc3)c3ccccc23)n1` [Example 30, 3-((4-((4-(3-(3-isopropyl-1-(p-tolyl)-1H-pyrazol-5-yl)ureido)naphthalen-1-yl)oxy)pyrimidin-2-yl)amino)-4-methoxy-N-(2-morpholinoethyl)benzamide] returned an IC50 in data set [1] of 3 nM. Also, in data set [2], the “Cell viability at time point in d-U937 cells 4 h” value is “−ve (−ve and +ve indicate that the value is below and above respectively, the no significant effect threshold, defined as 30% inhibition at 1 μg/mL at the time point indicated.)”; the “Cell viability at time point in d-U937 cells 24 h” value was “−ve (−ve and +ve indicate that the value is below and above respectively, the no significant effect threshold, defined as 30% inhibition at 1 μg/mL at the time point indicated.)”.

Compound `COc1cc(C(=O)NCCO)ccc1Nc1nccc(Oc2ccc(NC(=O)Nc3cc(C(C)(C)C)nn3-c3ccc(C)cc3)c3ccccc23)n1` [Example 4, 4-((4-((4-(3-(3-(tert-Butyl)-1-(p-tolyl)-1H-pyrazol-5-yl)ureido)naphthalen-1-yl)oxy)pyrimidin-2-yl)amino)-N-(2-hydroxyethyl)-3-methoxybenzamide] displayed an IC50 in data set [1] of 26 nM. In data set [2], the “Cell viability at time point in d-U937 cells 4 h” value was “−ve (−ve and +ve indicate that the value is below and above respectively, the no significant effect threshold, defined as 30% inhibition at 1 μg/mL at the time point indicated.)”; the “Cell viability at time point in d-U937 cells 24 h” value is “−ve (−ve and +ve indicate that the value is below and above respectively, the no significant effect threshold, defined as 30% inhibition at 1 μg/mL at the time point indicated.)”.

As for `COc1cc(C(=O)NCCN2CCOCC2)ccc1Nc1nccc(Oc2ccc(NC(=O)Nc3cc(C(C)(C)C)nn3-c3ccc(C)cc3)c3ccccc23)n1` [Example 37, 4-((4-((4-(3-(3-(tert-butyl)-1-(p-tolyl)-1H-pyrazol-5-yl)ureido)naphthalen-1-yl)oxy)pyrimidin-2-yl)amino)-3-methoxy-N-(2-morpholinoethyl)benzamide], in data set [1], the midpoint of inhibition, the IC50, lay at 44 nM. In data set [2], the “Cell viability at time point in d-U937 cells 4 h” value is “−ve (−ve and +ve indicate that the value is below and above respectively, the no significant effect threshold, defined as 30% inhibition at 1 μg/mL at the time point indicated.)”; the “Cell viability at time point in d-U937 cells 24 h” value was “−ve (−ve and +ve indicate that the value is below and above respectively, the no significant effect threshold, defined as 30% inhibition at 1 μg/mL at the time point indicated.)”.

With `Cc1ccc(-n2nc(C(C)(C)C)cc2NC(=O)Nc2ccc(Oc3ccnc(Nc4cccc(C(=O)NCCN(C)C)c4)n3)c3ccccc23)cc1` [Example 18, 3-((4-((4-(3-(3-(tert-butyl)-1-(p-tolyl)-1H-pyrazol-5-yl)ureido)naphthalen-1-yl)oxy)pyrimidin-2-yl)amino)-N-(2-(dimethylamino)ethyl)benzamide], the IC50 in data set [1] is 12 nM. Further, in data set [2], the “Cell viability at time point in d-U937 cells 4 h” value was “−ve (−ve and +ve indicate that the value is below and above respectively, the no significant effect threshold, defined as 30% inhibition at 1 μg/mL at the time point indicated.)”; the “Cell viability at time point in d-U937 cells 24 h” value was “−ve (−ve and +ve indicate that the value is below and above respectively, the no significant effect threshold, defined as 30% inhibition at 1 μg/mL at the time point indicated.)”.
